{
  "source": "patent US20230364130A1",
  "about": "“INHALED ARGON FOR TREATING A PATIENT SUFFERING FROM CARDIOVASCULAR DISEASE” (L'Air Liquide, Sociëtë Anonyme Pour l'Etude et …, priority 2020, published 2023)",
  "key": {"[1]": {"system": "rabbits", "assay": "model of multiple organ failure by clamping the supraceliac aorta (30 min) then reperfusion; hemodynamics and acid-base parameters", "type": "in vivo, rabbit (male, New Zealand breed)", "procedure": "(§1) More specifically, the model used is a lagomorphic model of multiple organ failure by clamping the supraceliac aorta.\nThe rabbits were sedated by intravenous injection (Zoletil® 15 mg/kg), then intubated to be ventilated. Anesthesia is completed by intravenous administration of thiopental (10 mg/kg) and methadone hydrochloride (Comfortan® 0.6 mg/kg); and maintained as needed with thiopental boluses.\n(§2) After a period of hemodynamic stabilization, the supraceliac aorta is clamped with an atraumatic clamp for 30 minutes. In order to avoid any thrombus formation at the level of the clamping, a bolus of unfractionated heparin (250 IU/kg) is administered to the rabbit in question, 5 minutes before clamping.\nThe effectiveness of the clamping is verified by the absence of an aortic pulse downstream of the clamping. Similarly, the absence of thrombus is assessed by the presence of an aortic pulse after unclamping.\n(§3) The rabbits are separated into 2 groups: • a Control Group (CG) inhaling an N2/O2 binary gas mixture containing 30% of oxygen and the rest as nitrogen (vol %); • an Argon Group (AG) according to the invention inhaling an Ar/O2 binary gas mixture containing 30% of oxygen and the rest as argon (vol %), i.e. 70 vol % of argon.\nThe cardiac output is measured by a cardiac output valve before, during and after ischemia (Isch.) of the aorta."}, "[2]": {"system": "rabbits", "assay": "histology score of organs after supraceliac aortic clamping and reperfusion", "type": "in vivo, rabbit (male, New Zealand breed)", "procedure": "as §1, §2, §3\nFIG. 3 represents the histology score of several organs: heart, liver, lungs, kidneys and jejunum (i.e. intestines)."}, "[3]": {"system": "rabbits", "assay": "additional preliminary study: suprarenal then supraceliac aortic clamping, calculated pulmonary vascular resistance", "type": "in vivo, rabbit", "conditions": "argon 70 vol % / oxygen 30 vol %, during suprarenal then supraceliac aortic clamping", "procedure": "A first clamping of the aorta of these rabbits was performed above the renal artery, followed by clamping at the supraceliac level. The objective is to see the effect of argon during a gradual modification of systemic resistance."}, "[4]": {"conditions": "after 300 minutes of reperfusion"}},
  "data": [
    {"compound": "[Ar]", "note": "[argon]", "values": [
      {"measurement": "pH, HCO3- and lactate parameters vs Control Group", "setting": "[1]; acid-base biochemical parameters", "value": "significantly preserved within normal values"},
      {"measurement": "norepinephrine dose required to maintain a stable arterial pressure", "setting": "[1]; after 15 minutes of reperfusion", "value": "1.4 ± 0.6", "unit": "µg/kg/min"},
      {"measurement": "cardiac output", "setting": "[1]; after 30 minutes of gas inhalation, before clamping", "value": "99 ± 10", "unit": "mL/min/kg"},
      {"measurement": "cardiac output", "setting": "[1]; [4]", "value": "60 ± 4", "unit": "mL/min/kg"},
      {"measurement": "pH", "setting": "[1]; [4]", "value": 7.16},
      {"measurement": "cardiac output vs Control Group", "setting": "[1]; after unclamping, up to 240 minutes of reperfusion", "value": "no significant difference between the groups"},
      {"measurement": "norepinephrine dose required to maintain a stable arterial pressure", "setting": "[1]; at the end of the 300-minute monitoring", "value": "3.3 ± 1.6", "unit": "µg/kg/min"},
      {"measurement": "cardiac output", "setting": "[1]; at the start of the experiment, inhaled Ar/O2 70/30 vol %", "value": "108 ± 7", "unit": "mL/min/kg"},
      {"measurement": "mean arterial pressure", "setting": "[1]; during the ischemia phase following clamping", "value": "130±7", "unit": "mmHg"},
      {"measurement": "mean arterial pressure vs Control Group", "setting": "[1]; during the reperfusion phase, after unclamping", "value": "no significant difference between the groups"},
      {"measurement": "attenuated decrease of cardiac output vs Control Group", "setting": "[1]; immediately after beginning of surgery, upon clamping", "value": "approximately 20%"},
      {"measurement": "norepinephrine doses to maintain mean arterial pressure vs Control Group", "setting": "[1]; throughout reperfusion", "value": "significantly lower"},
      {"measurement": "heart rate vs Control Group", "setting": "[1]; throughout the protocol", "value": "no significant difference between the groups"},
      {"measurement": "jejunal lesions vs Control Group", "setting": "[2]; jejunum, histology", "value": "no difference"},
      {"measurement": "tubular necrosis lesions vs Control Group", "setting": "[2]; kidneys, histology", "value": "significantly greater in the Control Group than in the Argon Group"},
      {"measurement": "histology score, centrilobular clarification vs Control Group", "setting": "[2]; liver", "value": "significantly lower"},
      {"measurement": "congestive and edematous lesions of the lung parenchyma vs Control Group", "setting": "[2]; lungs, histology", "value": "the difference was not significant"},
      {"measurement": "subendocardial necrosis lesions vs Control Group", "setting": "[2]; myocardium, histology", "value": "no significant difference"},
      {"measurement": "pulmonary vascular resistance vs animals exposed to oxygen-enriched air", "setting": "[3]", "value": "immediately reduced"}
    ]}
  ]
}
